Literature values in patent publication US20240423898A1, “LONGEVITY EYE CREAM” (Wellbeam Consumer Health Intermediate, LLC, priority 2023, published 2024).

What was measured:
[1] = test system: under-eye dark circles; conditions: in vivo
[2] = test system: skin; conditions: topical application

Row | Structure (SMILES) | under-eye dark circles [1] | improvement in lines and wrinkles, pigmentation, elasticity, firmness, and overall reduction in photo-damage [2] | irritating effect on the skin [2]
1 | Cn1c(=O)c2c(ncn2C)n(C)c1=O [caffeine] | can reduce under-eye dark circles | – | –
2 | C=C[C@@](C)(/C=C/c1ccc(O)cc1)CCC=C(C)C [bakuchiol] | – | significant improvement | no irritating effect on the skin
